Tests used:
[1] = tested on: L. monocytogenes ATCC 19111; details: micro-dilution, twofold serial dilutions, 37 °C, 18 h, absorbance 595 nm, means of two independent experiments in duplicate
[2] = tested on: L. ivanovii HPB28, L. monocytogenes LSD530, L. monocytogenes ATCC 19111; details: L. ivanovii HPB28, L. monocytogenes LSD530 and ATCC 19111; micro-dilution, 37 °C, 18 h
[3] = tested on: L. monocytogenes ATCC 19111; details: L. monocytogenes ATCC 19111, soft agar TSBYE; 75 µL of 1 mg/mL peptide (or UL5 culture supernatant) per well; 37 °C, 18 h
L. ivanovii HPB28 = details: micro-dilution, twofold serial dilutions, 37 °C, 18 h, absorbance 595 nm, means of two independent experiments in duplicate
L. monocytogenes LSD530 = details: micro-dilution, twofold serial dilutions, 37 °C, 18 h, absorbance 595 nm, means of two independent experiments in duplicate
P. acidilactici UL5 = assay: MIC micro-dilution assay; format: cell-based, Pediococcus acidilactici; details: P. acidilactici UL5 (pediocin producer, immune), 37 °C, 18 h, absorbance 595 nm, means of two independent experiments in duplicate
M. luteus ATCC 10240 = assay: Antimicrobial assay; format: cell-based, Micrococcus luteus; details: at up to 100 µM
[4] = tested on: Streptococcus thermophilus RBL 18 FYE 41; assay: MIC micro-dilution assay; format: cell-based; details: MH, 37 °C, 18 h
C. perfringens = format: cell-based, Clostridium perfringens; details: radial diffusion assays, RCM
[5] = tested on: Enteroccocus faecalis ATCC 27275; assay: MIC micro-dilution assay; format: cell-based, Enterococcus faecalis; details: BHI, 37 °C, 18 h
[6] = tested on: Bacillus cereus LSPQ 2872; assay: MIC micro-dilution assay; format: cell-based; details: MH, 37 °C, 18 h
[7] = tested on: Lactobacillus acidophilus ATCC 4356; assay: MIC micro-dilution assay; format: cell-based; details: MRS, 37 °C, 18 h
[8] = tested on: Staphylococcus aureus ATCC 29213; assay: MIC micro-dilution assay; format: cell-based; details: MH, 37 °C, 18 h
[9] = tested on: Staphylococcus aureus ATCC 25923; assay: MIC micro-dilution assay; format: cell-based; details: MH, 37 °C, 18 h
[10] = tested on: Escherichia coli ATCC 25922; assay: MIC micro-dilution assay; format: cell-based; details: MH, 37 °C, 18 h
[11] = tested on: Bacillus coagulans ATCC 7050; assay: MIC micro-dilution assay; format: cell-based; details: MH, 37 °C, 18 h
[12] = tested on: Staphylococcus aureus ATCC 6538; assay: MIC micro-dilution assay; format: cell-based; details: MH, 37 °C, 18 h
[13] = tested on: Bifidobacterium animalis ATCC 27536; assay: MIC micro-dilution assay; format: cell-based; details: RCM, 37 °C, 18 h
[14] = tested on: Enterococcus hirae ATCC 10541; assay: MIC micro-dilution assay; format: cell-based; details: BHI, 37 °C, 18 h
[15] = tested on: Clostridium tyrobutiricum ATCC 25755; assay: MIC micro-dilution assay; format: cell-based, Clostridium tyrobutyricum; details: RCM, 37 °C, 18 h
[16] = tested on: Bacillus subtilis ATCC 6633; assay: MIC micro-dilution assay; format: cell-based; details: MH, 37 °C, 18 h
[17] = tested on: Lactococcus lactis ATCC 19257; assay: MIC micro-dilution assay; format: cell-based; details: MRS, 37 °C, 18 h

KYYGNGVTAGKHSASVDWGKATTAIINNGAMAWATGGHQGNHKA [compound 6, linear analog with all four cysteine residues replaced by alanine]
Minimal inhibitory concentration [1]: n.a. (no activity detected at concentrations up to 100 µM)
MIC, range over the Listeria target strains [2]: completely inactive
Inhibition zone diameter [3]: no activity
Minimal inhibitory concentration (L. ivanovii HPB28): n.a.^a (no activity detected at concentrations up to 100 µM)
Minimal inhibitory concentration (L. monocytogenes LSD530): n.a. (no activity detected at concentrations up to 100 µM)
Minimal inhibitory concentration (P. acidilactici UL5): n.a. (no activity detected at concentrations up to 100 µM)

CC[C@H](C)[C@@H]1NC(=O)[C@@H](NC(=O)[C@@H](NC(=O)[C@@H](NC(=O)[C@H](C)NC(=O)[C@H](CCCCN)NC(=O)CNC(=O)[C@H](Cc2c[nH]c3ccccc23)NC(=O)[C@H](CC(=O)O)NC(=O)[C@@H](NC(=O)[C@H](CO)NC(=O)[C@@H]2CSSC[C@H](NC(=O)[C@@H](NC(=O)[C@@H](NC(=O)CNC(=O)[C@H](CC(N)=O)NC(=O)CNC(=O)[C@H](Cc3ccc(O)cc3)NC(=O)[C@H](Cc3ccc(O)cc3)NC(=O)[C@@H](N)CCCCN)C(C)C)[C@@H](C)O)C(=O)NCC(=O)N[C@@H](CCCCN)C(=O)N[C@@H](Cc3c[nH]cn3)C(=O)N[C@@H](CO)C(=O)N2)C(C)C)[C@@H](C)O)[C@@H](C)O)CSSC[C@@H](C(=O)O)NC(=O)[C@H](CCCCN)NC(=O)[C@H](Cc2c[nH]cn2)NC(=O)[C@H](CC(N)=O)NC(=O)CNC(=O)[C@H](CCC(N)=O)NC(=O)[C@H](Cc2c[nH]cn2)NC(=O)CNC(=O)CNC(=O)[C@H]([C@@H](C)O)NC(=O)[C@H](C)NC(=O)[C@H](Cc2c[nH]c3ccccc23)NC(=O)[C@H](C)NC(=O)[C@H](CCSC)NC(=O)[C@H](C)NC(=O)CNC(=O)[C@H](CC(N)=O)NC(=O)[C@H](CC(N)=O)NC(=O)[C@H]([C@@H](C)CC)NC1=O [3c, pediocin PA-1]
activity against M. luteus ATCC 10240 (M. luteus ATCC 10240): no activity

CC[C@H](C)[C@H](NC(=O)[C@H](CS)NC(=O)[C@@H](NC(=O)[C@@H](NC(=O)[C@H](C)NC(=O)[C@H](CCCCN)NC(=O)CNC(=O)[C@H](Cc1c[nH]c2ccccc12)NC(=O)[C@H](CC(=O)O)NC(=O)[C@@H](NC(=O)[C@H](CO)NC(=O)[C@H](CS)NC(=O)[C@H](CO)NC(=O)[C@H](Cc1c[nH]cn1)NC(=O)[C@H](CCCCN)NC(=O)CNC(=O)[C@H](CS)NC(=O)[C@@H](NC(=O)[C@@H](NC(=O)CNC(=O)[C@H](CC(N)=O)NC(=O)CNC(=O)[C@H](Cc1ccc(O)cc1)NC(=O)[C@H](Cc1ccc(O)cc1)NC(=O)[C@@H](N)CCCCN)C(C)C)[C@@H](C)O)C(C)C)[C@@H](C)O)[C@@H](C)O)C(=O)N[C@H](C(=O)N[C@@H](CC(N)=O)C(=O)N[C@@H](CC(N)=O)C(=O)NCC(=O)N[C@@H](C)C(=O)N[C@@H](CC(C)C)C(=O)N[C@@H](C)C(=O)N[C@@H](Cc1c[nH]c2ccccc12)C(=O)N[C@@H](C)C(=O)N[C@H](C(=O)NCC(=O)NCC(=O)N[C@@H](Cc1c[nH]cn1)C(=O)N[C@@H](CCC(N)=O)C(=O)NCC(=O)N[C@@H](CC(N)=O)C(=O)N[C@@H](Cc1c[nH]cn1)C(=O)N[C@@H](CCCCN)C(=O)N[C@@H](CS)C(=O)O)[C@@H](C)O)[C@@H](C)CC [compound 4]
MIC [4]: n.a. (no activity detected at concentrations up to 100 µM)
inhibition diameters against C. perfringens, range over two strains (C. perfringens): 22–25 mm
MIC [5]: n.a. (no activity detected at concentrations up to 100 µM)
MIC [6]: n.a. (no activity detected at concentrations up to 100 µM)
MIC [7]: n.a. (no activity detected at concentrations up to 100 µM)
MIC [8]: n.a. (no activity detected at concentrations up to 100 µM)
MIC [9]: n.a. (no activity detected at concentrations up to 100 µM)
MIC [10]: n.a. (no activity detected at concentrations up to 100 µM)
MIC [11]: n.a. (no activity detected at concentrations up to 100 µM)
MIC [12]: n.a. (no activity detected at concentrations up to 100 µM)
MIC [13]: n.a. (no activity detected at concentrations up to 100 µM)
MIC [14]: n.a. (no activity detected at concentrations up to 100 µM)
MIC [15]: n.a. (no activity detected at concentrations up to 100 µM)
MIC [16]: n.a. (no activity detected at concentrations up to 100 µM)
MIC [17]: n.a. (no activity detected at concentrations up to 100 µM)

Reference: publication PMC5998028, “Synthesis, antimicrobial activity and conformational analysis of the class IIa bacteriocin pediocin PA-1 and analogs thereof” (Scientific Reports, 2018)
